Experimental findings from patent US10501460B2, “Heterocyclic compounds and uses thereof” (Plexxikon Inc., priority 2013, dated 2019) are described below.

One assay has as its system MV-4-11. Put plainly: Oncology cell growth assay MV-4-11 (CellTiter Glo, 72 hours). Format: cell-based. The conditions noted are these: Homo sapiens, MV4-11, 72 h; MV-4-11 cell growth inhibitory activity, 3d. An outline of the steps: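 MV-4-11 cells (MLL-AF4 AML) exposed 72 h to 8-point 1:3 titration, top final 10 μM, 0.2% DMSO. CellTiter Glo luminescence as cell-number readout, normalized to DMSO controls; pIC50 from four-parameter fit.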
On the technique in general: Cellular ATP, detected with luciferase, serves as a proxy for viable cell number.

A further assay deals with bromodomain. Put plainly: Bromodomain cell assays of Example 40 (at least one of them). Format: cell-based. The conditions noted are these: in at least one of the bromodomain cell assays described in Example 40. In outline:
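Growth inhibition: 3000 MV-4-11, MOLM-13, MM.1S or neuroblastoma cells/well got an 8-point 1:3 series from 10 μM top (0.2% DMSO) for 72 h, then CellTiter-Glo luminescence. Myc reporter: MV-4-11 with E-box firefly luciferase, 24 h exposure, One-Glo luminescence plus CellTiter-Fluo cell count. pIC50 from four-parameter fit.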

The structures appear in SMILES notation.

The IC50 is the concentration needed to halve the response being measured. Low readings indicate higher potency, high ones lower potency. In the case of `[2H]C([2H])(C1CCC(F)(F)CC1)n1cc(-c2cnn(C)c2)c2ncc(-c3c(C)noc3C)cc21` [P-0211, 4-[1-[dideuterio-(4,4-difluorocyclohexyl)methyl]-3-(1-methylpyrazol-4-yl)pyrrolo[3,2-b]pyridin-6-yl]-3,5-dimethyl-isoxazole], the IC50 with MV-4-11 is no more than 1 µM; with bromodomain, less than 10 µM.
For the compound `Cc1noc(C)c1-c1cnc2c(-c3cnn(C)c3)cn(S(=O)(=O)c3cccc(F)c3)c2c1` [P-0122, 4-[1-(3-fluorophenyl)sulfonyl-3-(1-methylpyrazol-4-yl)pyrrolo[3,2-b]pyridin-6-yl]-3,5-dimethyl-isoxazole], the IC50 is no more than 1 µM in the assay on MV-4-11 and less than 10 µM in the assay with bromodomain.
On to `Cc1noc(C)c1-c1cnc2c(-c3cnn(C)c3)cn(Cc3ccccn3)c2c1` [P-0198, 3,5-dimethyl-4-[3-(1-methylpyrazol-4-yl)-1-(2-pyridylmethyl)pyrrolo[3,2-b]pyridin-6-yl]isoxazole], for which the results for the IC50 in the assay on MV-4-11 and in the assay with bromodomain were no more than 1 µM and less than 10 µM, respectively.
As to `CCCS(=O)(=O)n1cc(-c2cnn(C(F)F)c2)c2ncc(-c3c(C)noc3C)cc21` [P-0135, 4-[3-[1-(difluoromethyl)pyrazol-4-yl]-1-propylsulfonyl-pyrrolo [3,2-b]pyridin-6-yl]-3,5-dimethyl-isoxazole], the IC50 in the assay with MV-4-11 is no more than 1 µM; with bromodomain, less than 10 µM.
On to `C=CCn1cc(-c2cn(S(=O)(=O)c3ccccc3F)c3cc(-c4c(C)noc4C)cnc23)cn1` [P-0127, 4-[3-(1-allylpyrazol-4-yl)-1-(2-fluorophenyl)sulfonyl-pyrrolo[3,2-b]pyridin-6-yl]-3,5-dimethyl-isoxazole], for which the concentration for half-maximal inhibition (IC50) in the assay with MV-4-11 was no more than 1 µM; in the assay on bromodomain, less than 10 µM.
The matching figures for `Cc1noc(C)c1-c1cnc2[nH]cc(Cc3cccnc3)c2c1` [P-0003, 3,5-dimethyl-4-[3-(3-pyridylmethyl)-1H-pyrrolo[2,3-b]pyridin-5-yl]isoxazole]: no more than 1 µM and less than 10 µM.
In the case of `Cc1noc(C)c1-c1cnc2[nH]cc(C3(O)CCC(F)(F)CC3)c2c1` [P-0024, 1-[5-(3,5-dimethylisoxazol-4-yl)-1H-pyrrolo[2,3-b]pyridin-3-yl]-4,4-difluoro-cyclohexanol], the IC50 with MV-4-11 was 1 to 10 µM; with bromodomain it was less than 10 µM.
Regarding `Cc1noc(C)c1-c1cnc2c(-c3cnn(C(F)F)c3)cn(S(=O)(=O)C3CCC3)c2c1` [P-0134, 4-[1-cyclobutylsulfonyl-3-[1-(difluoromethyl)pyrazol-4-yl]pyrrolo[3,2-b]pyridin-6-yl]-3,5-dimethyl-isoxazole], the values for the IC50 in the assay with MV-4-11 and with bromodomain were no more than 1 µM and less than 10 µM, respectively.
Regarding `COC(c1c(F)cccc1Cl)c1c[nH]c2ncc(-c3c(C)noc3C)cc12` (stereo not drawn) [P-0014, 4-[3-[(2-chloro-6-fluoro-phenyl)-methoxy-methyl]-1H-pyrrolo[2.3-b]pyridin-5-yl]-3,5-dimethyl-isoxazole], the IC50 in the assay on MV-4-11 is no more than 1 µM; in the assay with bromodomain it was less than 10 µM.
As for `COCCn1cc(-c2cn(S(=O)(=O)c3ccccc3)c3cc(-c4c(C)noc4C)cnc23)cn1` [P-0147, 4-[1-(benzenesulfonyl)-3-[1-(2-methoxyethyl)pyrazol-4-yl]pyrrolo[3,2-b]pyridin-6-yl]-3,5-dimethyl-isoxazole], the IC50 in the assay on MV-4-11 was no more than 1 µM; in the assay on bromodomain, less than 10 µM.
`Cc1noc(C)c1-c1cnc2c(I)cn(C(C)c3ccccc3)c2c1` (stereo not drawn) [P-0224, 4-[3-iodo-1-(1-phenylethyl)pyrrolo[3,2-b]pyridin-6-yl]-3,5-dimethyl-isoxazole]: the figures for the IC50 in the assay on MV-4-11 and in the assay with bromodomain were no more than 1 µM and less than 10 µM, respectively.
On the same counts, the results for `CCS(=O)(=O)n1cc(C(OC)C2CCC(F)(F)CC2)c2cc(-c3c(C)noc3C)cnc21` (stereo not drawn) [P-0078, 4-[3-[(4,4-difluorocyclohexyl)-methoxy-methyl]-1-ethylsulfonyl-pyrrolo[2,3-b]pyridin-5-yl]-3,5-dimethyl-isoxazole] are 1 to 10 µM and less than 10 µM.
Regarding `C=CCn1cc(-c2cn(S(=O)(=O)CCC(F)(F)F)c3cc(-c4c(C)noc4C)cnc23)cn1` [P-0129, 4-[3-(1-allylpyrazol-4-yl)-1-(3,3,3-trifluoropropylsulfonyl)pyrrolo[3,2-b]pyridin-6-yl]-3,5-dimethyl-isoxazole], the results for the IC50 in the assay on MV-4-11 and with bromodomain were no more than 1 µM and less than 10 µM, respectively.
For the compound `Cc1noc(C)c1-c1cnc2[nH]cc(C(O)c3cccc4c3OC(F)(F)O4)c2c1` (stereo not drawn) [P-0041, (2,2-difluoro-1,3-benzodioxol-4-yl)-[5-(3,5-dimethylisoxazol-4-yl)-1H-pyrrolo[2,3-b]pyridin-3-yl] methanol], the IC50 with MV-4-11 is 1 to 10 µM; in the assay with bromodomain it was less than 10 µM.
Take `Cc1nn(C)cc1-c1cn(C(C)c2ccccc2)c2cc(-c3c(C)noc3C)cnc12` (stereo not drawn) [P-0205, 4-[3-(1,3-dimethylpyrazol-4-yl)-1-(1-phenylethyl)pyrrolo[3,2-b]pyridin-6-yl]-3,5-dimethyl-isoxazole]: the IC50 with MV-4-11 is no more than 1 µM; in the assay with bromodomain it was less than 10 µM.
Turning to `COC(c1c[nH]c2ncc(-c3c(C)noc3C)cc12)C1CCS(=O)(=O)CC1` (stereo not drawn) [P-0089, 4-[[5-(3,5-dimethylisoxazol-4-yl)-1H-pyrrolo[2,3-b]pyridin-3-yl]-methoxy-methyl]thiane 1,1-dioxide], the IC50 with MV-4-11 was 1 to 10 µM; with bromodomain it was less than 10 µM.
The matching figures for `Cc1noc(C)c1-c1cnc2c(-c3cn[nH]c3)cn(C(C)c3ccccc3)c2c1` (stereo not drawn) [P-0199, 3,5-dimethyl-4-[1-(1-phenylethyl)-3-(1H-pyrazol-4-yl)pyrrolo[3,2-b]pyridin-6-yl]isoxazole]: no more than 1 µM and less than 10 µM.
In the case of `Cc1noc(C)c1-c1cnc2c(-c3cc(C(F)(F)F)n[nH]3)cn(C(C)c3ccccc3)c2c1` (stereo not drawn) [P-0215, 3,5-dimethyl-4-[1-(1-phenylethyl)-3-[3-(trifluoromethyl)-1H-pyrazol-5-yl]pyrrolo[3,2-b]pyridin-6-yl]isoxazole], the IC50 with MV-4-11 is no more than 1 µM; in the assay on bromodomain it was less than 10 µM.
For `Cc1noc(C)c1-c1cnc2c(-c3cn[nH]c3)cn(S(=O)(=O)c3ccccc3)c2c1` [P-0163, 4-[1-(benzenesulfonyl)-3-(1H-pyrazol-4-yl)pyrrolo[3,2-b]pyridin-6-yl]-3,5-dimethyl-isoxazole], the IC50 in the assay on MV-4-11 was no more than 1 µM; with bromodomain it was less than 10 µM.
For `Cc1noc(C)c1-c1cnc2[nH]cc(P(C)(=O)c3ccccc3)c2c1` (stereo not drawn) [P-0165, 3,5-dimethyl-4-[3-[methyl(phenyl)phosphoryl]-1H-pyrrolo[2,3-b]pyridin-5-yl]isoxazole], the results for the IC50 with MV-4-11 and with bromodomain were no more than 1 µM and less than 10 µM, respectively.
In the case of `Cc1noc(C)c1-c1cnc2[nH]cc(C(O)c3cccc(OC(F)(F)F)c3)c2c1` (stereo not drawn) [P-0039, [5-(3,5-dimethylisoxazol-4-yl)-1H-pyrrolo[2,3-b]pyridin-3-yl]-[3-(trifluoromethoxy)phenyl] methanol], the IC50 in the assay on MV-4-11 was 1 to 10 µM; in the assay on bromodomain, less than 10 µM.
On to `Cc1noc(C)c1-c1cnc2c(-c3cnn(C4CCOC4)c3)cn(S(=O)(=O)C3CCCC3)c2c1` (stereo not drawn) [P-0153, 4-[1-cyclopentylsulfonyl-3-(1-tetrahydrofuran-3-ylpyrazol-4-yl)pyrrolo [3,2-b]pyridin-6-yl]-3,5-dimethyl-isoxazole], for which the IC50 in the assay on MV-4-11 was no more than 1 µM; in the assay with bromodomain it was less than 10 µM.
On to `Cc1noc(C)c1-c1cnc2[nH]cc(Sc3ccccc3)c2c1` [P-0144, 3,5-dimethyl-4-(3-phenylsulfanyl-1H-pyrrolo[2,3-b]pyridin-5-yl)isoxazole], for which the IC50 with MV-4-11 was 1 to 10 µM; with bromodomain, less than 10 µM.
As for `CCc1[nH]c2ncc(-c3c(C)noc3C)cc2c1C(OC)C1CCC(F)(F)CC1` (stereo not drawn) [P-0045, 4-[3-[(4,4-difluorocyclohexyl)-methoxy-methyl]-2-ethyl-1H-pyrrolo[2,3-b]pyridin-5-yl]-3,5-dimethyl-isoxazole], the figures for the IC50 in the assay on MV-4-11 and in the assay on bromodomain were no more than 1 µM and less than 10 µM, respectively.
On to `Cc1noc(C)c1-c1cnc2[nH]c(C)c(C(O)c3cccnc3)c2c1` (stereo not drawn) [P-0009, [5-(3,5-dimethylisoxazol-4-yl)-2-methyl-1H-pyrrolo[2,3-b]pyridin-3-yl]-(3-pyridyl)methanol], for which the values for the IC50 in the assay with MV-4-11 and in the assay with bromodomain were no more than 1 µM and less than 10 µM, respectively.
As for `Cc1noc(C)c1-c1cnc2[nH]cc(C(O)c3ccccc3OC(F)F)c2c1` (stereo not drawn) [P-0040, [2-(difluoromethoxy)phenyl]-[5-(3,5-dimethylisoxazol-4-yl)-1H-pyrrolo[2,3-b]pyridin-3-yl] methanol], the results for the IC50 in the assay with MV-4-11 and in the assay with bromodomain were no more than 1 µM and less than 10 µM, respectively.
Take `COCCn1cc(-c2cn(C(C)c3ccccc3)c3cc(-c4c(C)noc4C)cnc23)cn1` (stereo not drawn) [P-0203, 4-[3-[1-(2-methoxyethyl)pyrazol-4-yl]-1-(1-phenylethyl)pyrrolo[3,2-b]pyridin-6-yl]-3,5-dimethyl-isoxazole]: the results for the concentration for half-maximal inhibition (IC50) in the assay with MV-4-11 and in the assay on bromodomain were no more than 1 µM and less than 10 µM, respectively.
Take `Cc1noc(C)c1-c1cnc2ccn(S(=O)(=O)c3ccccc3F)c2c1` [P-0060, 4-[1-(2-fluorophenyl)sulfonylpyrrolo[3,2-b]pyridin-6-yl]-3,5-dimethyl-isoxazole]: the IC50 in the assay with MV-4-11 is 1 to 10 µM; with bromodomain, less than 10 µM.
In the case of `C=CCn1cc(-c2cn(C(C)c3ccccc3)c3cc(-c4c(C)noc4C)cnc23)cn1` (stereo not drawn) [P-0201, 4-[3-(1-allylpyrazol-4-yl)-1-(1-phenylethyl)pyrrolo[3,2-b]pyridin-6-yl]-3,5-dimethyl-isoxazole], the IC50 in the assay with MV-4-11 was no more than 1 µM; with bromodomain it was less than 10 µM.
Take `Cc1noc(C)c1-c1cnc2[nH]cc(C(c3ccc(F)cc3)C3CC3)c2c1` (stereo not drawn) [P-0064, 4-[3-[cyclopropyl-(4-fluorophenyl)methyl]-1H-pyrrolo[2,3-b]pyridin-5-yl]-3,5-dimethyl-isoxazole]: the IC50 with MV-4-11 was no more than 1 µM; with bromodomain, less than 10 µM.
